From patent publication US5112741A, “Acetaldehyde trapping system” (Enzymatics, Inc., priority 1988, dated 1992)

Tests used:
[1] = Trapping of aldehyde/ketone oxidation product and alcohol conversion in enzymatic determination of alcohol (general statements); type: biochemical; details: diamine alone, without alpha-effect amine
Text: For reasons which are not well understood at the present time, the use of a combination of alpha-effect and primary amines according to the present invention dramatically increases the aldehyde/ketone trapping capacity of the amine trap, as compared to prior art amine traps consisting essentially of primary amine or of alpha-effect amine. Increases in trapping capacity, as measured by effective inactivation of aldehyde/ketone oxidation product in the reaction mixture, of up to about 100-fold over known prior art traps are typical.
With proper selection of amines, typical substrate conversions of about 100% are obtainable without dilution of the sample alcohol concentrations up to about 150 mM, thus permitting accurate and reliable end-point determinations. Such conversions are obtained by selection of amines for trap efficiency so that accumulation of active oxidation product is avoided. This ensures that a favorable reaction equilibrium is established, and that the catalyzing enzyme is not deactivated by oxidation product; the use of amines in the practice of the invention which tend to deactivate the catalyzing enzyme should, of course, be avoided.

alcohol dehydrogenase = assay: Relative equilibrium constants of trapping agents from NADH production by alcohol dehydrogenase after 10 minutes; type: biochemical; details: 5 mM trapping agent, 200 mM Glycine pH 9.5, 10 mM NAD, 5 mM ethanol, 125 IU ADH
Protocol: The relative equilibrium constants for trapping agents are listed below in Table 1. […] The reaction formulation was as follows: […] 5 mM ethanol 5 mM trapping agent 125 IU ADH

ADH = assay: Enzymatic oxidation of 65 mM ethanol by ADH/NAD in presence of trapping mixture; type: biochemical; details: 650 mM, Tris without alpha-effect amine, or carboxymethoxyamine and borate buffer without primary amine
Protocol: To a reaction mixture containing 5 IU ADH, 100 mM NAD, pH 9.5 and 65 mM ethanol was added a trapping mixture containing:
50 mM Carboxymethoxyamine, pH 10
A trapping mixture containing:
150 mM Carboxymethoxyamine, pH 10
was substituted for the trap in Example 1.
100 mM Hexanediamine, pH 10
150 mM Allylhydroxylamine, pH 9.8
100 mM Nitrobenzylhydroxylamine, pH 10

[2] = test system: alcohol dehydrogenase (ADH); details: cited from earlier work
[3] = test system: alcohol dehydrogenase (ADH); details: background statement; cited from earlier work

| Compound | RELATIVE EQUILIBRIUM CONSTANT (alcohol dehydrogenase) | also measured |
| --- | --- | --- |
| NCCCCCCN [1,6-hexanediamine] | – | Performance as sole trapping agent [1]: very satisfactory results are obtained |
| C=CCON [Allylhydroxylamine] | 25.3 | – |
| NOCC(=O)O [Carboxymethoxyamine] | 38.6 | Alcohol oxidation, single amine type (ADH): did not result in the complete oxidation of the alcohol |
| CCON [Ethylhydroxylamine] | 11.8 | – |
| CON [Methoxyamine] | 11.7 | – |
| NOCc1ccccc1 [O-Benzylhydroxylamine] | 40.9 | – |
| NC(CO)(CO)CO [Tris, Tris hydroxyl methylamine methane] | .2 | Alcohol oxidation, single amine type (ADH): did not result in complete alcohol oxidation; Conversion of the alcohol ([2]; ADH confined by semi-permeable membrane, continuous flow): about 18%; Capability of trapping high acetaldehyde concentrations ([2]; Tris by itself, acetaldehyde on the order of 85 mM): not capable by itself of reacting with and removing such high concentrations of acetaldehyde |
| CC=O [acetaldehyde] | – | Acetaldehyde concentration that inhibits alcohol dehydrogenase [3]: greater than 1 mM |
| Nitrobenzylhydroxylamine | 202.0 | – |
